Laboratory results from paper PMC4770234, “The conserved GTPase HflX is a ribosome splitting factor that binds to the E-site of the bacterial ribosome” (Nucleic Acids Research, 2016).

Tests used:
HflX ΔL372 = molecular target: T1, HflX ΔL372 (Escherichia coli, UniProt P25519); assay: [γ-32P]GTP hydrolysis, phosphate release, multiple turnover; assay type: biochemical; settings: ribosome-stimulated GTPase; 1 uM HflX, 125 uM GTP, 1 uM ribosomes per methods; labelled compound
T1 construct: C-terminal truncation: codon Leu372 (elsewhere printed Lys372) replaced by amber stop; N-terminal His6-tag, pET28a
T1 sequence (P25519 1-371): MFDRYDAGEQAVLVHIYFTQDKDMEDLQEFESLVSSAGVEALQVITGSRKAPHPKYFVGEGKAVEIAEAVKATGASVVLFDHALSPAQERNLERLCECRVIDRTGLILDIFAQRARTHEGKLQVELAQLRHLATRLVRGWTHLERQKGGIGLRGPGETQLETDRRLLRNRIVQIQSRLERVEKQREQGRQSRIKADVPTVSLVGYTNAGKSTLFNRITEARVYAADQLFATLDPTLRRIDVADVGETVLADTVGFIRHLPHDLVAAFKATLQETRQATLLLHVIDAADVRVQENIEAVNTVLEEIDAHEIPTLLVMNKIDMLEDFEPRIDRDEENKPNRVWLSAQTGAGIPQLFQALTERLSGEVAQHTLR

HflX (wild-type) = molecular target: T2, HflX (wild-type) (Escherichia coli, UniProt P25519); assay: stopped-flow light scattering of […] ribosome splitting; assay type: biochemical; settings: 1 uM HflX, 125 uM nucleotide, 0.15 uM 70S ribosomes, 5 mM Mg2+, 20 °C; compared with apo HflX; indirect functional read-out
T2 construct: full length, N-terminal His6-tag, pET28a
T2 sequence (P25519 whole entry): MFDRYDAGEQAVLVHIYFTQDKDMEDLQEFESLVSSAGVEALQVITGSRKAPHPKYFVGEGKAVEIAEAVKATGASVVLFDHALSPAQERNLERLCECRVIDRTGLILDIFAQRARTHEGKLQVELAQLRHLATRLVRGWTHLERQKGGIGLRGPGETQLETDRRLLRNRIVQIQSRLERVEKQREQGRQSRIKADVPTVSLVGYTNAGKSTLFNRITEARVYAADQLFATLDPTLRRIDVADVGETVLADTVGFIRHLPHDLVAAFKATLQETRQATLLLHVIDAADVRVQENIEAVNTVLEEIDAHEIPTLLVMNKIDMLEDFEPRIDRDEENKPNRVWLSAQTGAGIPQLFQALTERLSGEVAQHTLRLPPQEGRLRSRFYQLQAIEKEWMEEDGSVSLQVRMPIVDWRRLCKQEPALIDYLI

SMILES: Nc1nc2c(ncn2[C@@H]2O[C@H](COP(=O)(O)OP(=O)(O)OP(=O)(O)O)[C@@H](O)[C@H]2O)c(=O)[nH]1 [GTP]
- [γ-32P]GTP hydrolysis, phosphate release, multiple turnover (HflX ΔL372): we tested the ΔL372 truncation variant for GTP hydrolysis finding that it is still active

SMILES: Nc1nc2c(ncn2[C@@H]2O[C@H](COP(=O)(O)OP(=O)(O)NP(=O)(O)O)[C@@H](O)[C@H]2O)c(=O)[nH]1 [GDPNP]
- stopped-flow light scattering of 70S ribosome splitting (HflX (wild-type)): HflX•GDPNP dissociated ribosomes to a greater extent than HflX•GDP
